Source: patent US20240109873A1, “ANTAGONISTS OF THE MUSCARINIC ACETYLCHOLINE RECEPTOR M4” (Vanderbilt University, priority 2020, published 2024)

Biological target: T1, human mAChR M4 (Homo sapiens, UniProt P08173)
T1 construct: expressed in transfected cells; host or cells: CHO-K1 (ATCC), co-transfected with chimeric G protein Gqi5
T1 sequence (P08173 1-479): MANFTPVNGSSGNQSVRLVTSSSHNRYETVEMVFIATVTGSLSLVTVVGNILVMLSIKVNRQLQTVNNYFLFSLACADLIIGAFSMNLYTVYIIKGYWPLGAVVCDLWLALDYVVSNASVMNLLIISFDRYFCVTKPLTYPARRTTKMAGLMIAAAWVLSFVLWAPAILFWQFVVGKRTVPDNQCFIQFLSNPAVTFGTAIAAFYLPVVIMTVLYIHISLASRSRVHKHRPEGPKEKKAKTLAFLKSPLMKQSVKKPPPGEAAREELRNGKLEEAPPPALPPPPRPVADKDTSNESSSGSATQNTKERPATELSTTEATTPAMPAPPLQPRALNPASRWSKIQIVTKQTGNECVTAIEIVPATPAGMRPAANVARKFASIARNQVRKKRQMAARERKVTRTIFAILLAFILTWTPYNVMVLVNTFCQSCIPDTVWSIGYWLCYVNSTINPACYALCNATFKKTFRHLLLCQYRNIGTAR
Assay: mAChR M4 cell-based functional assay (calcium flux, antagonism of EC80 acetylcholine response, M4/Gqi5/CHO-K1 cells)
Conditions: for remaining activity at 30 µM: CHO-K1, % ACh maximum at 30 μM, read-out: Human M4 Emin; for IC50: decrease of the response elicited by an EC80 concentration of acetylcholine, CHO-K1 cells, Gqi5
Experimental: Human or rat M4 cDNA, along with the chimeric G protein Gqi5, were transfected into Chinese hamster ovary (CHO-K1) cells purchased from the American Type Culture Collection using Lipofectamine2000. M4/Gqi5/CHO cells were grown in Ham's F-12 medium containing 10% heat-inactivated fetal bovine serum (FBS), 20 mM HEPES, 500 μg/mL G418 sulfate, and 200 μg/mL Hygromycin B.
For high throughput measurement of agonist-evoked increases in intracellular calcium, CHO-K1 cells stably expressing muscarinic receptors were plated in growth medium lacking G418 and hygromycin at 15,000 cells/20 μL/well in Greiner 384-well black-walled, tissue culture (TC)-treated, clear-bottom plates (VWR). Cells were incubated overnight at 37° C. and 5% CO2. The next day, cells were washed using an ELX 405 (BioTek) with assay buffer; the final volume was then aspirated to 20 μL. Next, 20 μL of a 2.3 μM stock of Fluo-4/acetoxymethyl ester (Invitrogen, Carlsbad, CA), prepared as a 2.3 mM stock in DMSO and mixed in a 1:1 ratio with 10% (w/v) Pluronic F-127 and diluted in assay buffer, was added to the wells and the cell plates were incubated for 50 min at 37° C. and 5% CO2. Dye was removed by washing with the ELX 405 and the final volume was aspirated to 20 μL. Compound master plates were formatted in a 10-point concentration-response curve (CRC) format (1:3 dilutions) in 100% DMSO with a starting concentration of 10 or 1 mM using a BRAVO liquid handler (Agilent). Test compound CRCs were then transferred to daughter plates (240 nL) using the Echo acoustic plate reformatter (Labcyte, Sunnyvale, CA) and then diluted into assay buffer (40 μL) to a 2× stock using a Thermo Fisher Combi (Thermo Fisher Scientific, Waltham, MA).
Calcium flux was measured using the Functional Drug Screening System (FDSS) 6000 or 7000 (Hamamatsu Corporation, Tokyo, Japan) as an increase in the fluorescent static ratio. Compounds were applied to cells (20 μL, 2×) using the automated system of the FDSS at 2 seconds into the protocol and the data were collected at 1 Hz. At 143 s, 10 μL of an EC20 concentration of the muscarinic receptor agonist acetylcholine was added (5×), followed by the addition of 12 μL of an EC80 concentration of acetylcholine at the 268 s time point (5×). Agonist activity was analyzed as a concentration-dependent increase in calcium mobilization upon compound addition. Positive allosteric modulator activity was analyzed as a concentration-dependent increase in the EC20 acetylcholine response. Antagonist activity was analyzed as a concentration-dependent decrease in the EC80 acetylcholine response; for the purposes of the tables herein, an IC50 (inhibitory concentration 50) was calculated as a concentration-dependent decrease of the response elicited by an EC80 concentration of acetylcholine. Concentration-response curves were generated using a four-parameter logistical equation in XLFit curve fitting software (IDBS, Bridgewater, NJ) for Excel (Microsoft, Redmond, WA) or Prism (GraphPad Software, Inc., San Diego, CA) or the Dotmatics software platform (Dotmatics, Bishop's Stortford, UK). […]
Compounds were synthesized as described above. Activity (IC50 and Emin) was determined in the mAChR M4 cell-based functional assay as described above and the data are shown in Table 2.

| SMILES | remaining activity at 30 µM | IC50 |
| --- | --- | --- |
| [2H]C([2H])([C@H]1CCCCO1)N1C[C@H]2C[C@H](Nc3ccc(-c4cnccc4C(F)(F)F)nn3)C[C@H]2C1 [Compound 7, (3aR,5s,6aS)-2-(((R)-tetrahydro-2H-pyran-2-yl)methyl-d2)-N-(6-(4-(trifluoromethyl)pyridin-3-yl)pyridazin-3-yl)octahydrocyclopenta[c]pyrrol-5-amine] | 2% | 0.13 nM |
| [2H]C([2H])([C@@H]1CCCCO1)N1C[C@H]2C[C@H](Nc3ccc(-c4cnccc4C(F)(F)F)nn3)C[C@H]2C1 [Compound 8, (3aR,5s,6aS)-2-(((S)-tetrahydro-2H-pyran-2-yl)methyl-d2)-N-(6-(4-(trifluoromethyl)pyridin-3-yl)pyridazin-3-yl)octahydrocyclopenta[c]pyrrol-5-amine] | 3% | 0.086 nM |
| [2H]C([2H])(C1CCCOC1)N1C[C@H]2C[C@H](Nc3ccc(-c4cnccc4C(F)(F)F)nn3)C[C@H]2C1 (stereo partly drawn) [Compound 9, (3aR,5s,6aS)-2-((tetrahydro-2H-pyran-3-yl)methyl-d2)-N-(6-(4-(trifluoromethyl)pyridin-3-yl)pyridazin-3-yl)octahydrocyclopenta[c]pyrrol-5-amine] | 2% | 1 nM |
| [2H]C([2H])(C1CCCCC1)N1C[C@H]2C[C@H](Nc3ccc(-c4cnccc4C(F)(F)F)nn3)C[C@H]2C1 [Compound 10, (3aR,5s,6aS)-2-(cyclohexylmethyl-d2)-N-(6-(4-(trifluoromethyl)pyridin-3-yl)pyridazin-3-yl)octahydrocyclopenta[c]pyrrol-5-amine] | 3% | 0.56 nM |
| [2H]C([2H])(N1C[C@H]2C[C@H](Nc3ccc(-c4cnccc4C(F)(F)F)nn3)C[C@H]2C1)C1(F)CCOCC1 [Compound 11, (3aR,5s,6aS)-2-((4-fluorotetrahydro-2H-pyran-4-yl)methyl-d2)-N-(6-(4-(trifluoromethyl)pyridin-3-yl)pyridazin-3-yl)octahydrocyclopenta[c]pyrrol-5-amine] | 2% | 0.86 nM |
| [2H]C1([2H])CC(C([2H])([2H])N2C[C@H]3C[C@H](Nc4ccc(-c5cnccc5C(F)(F)F)nn4)C[C@H]3C2)CC([2H])([2H])O1 [Compound 12, (3aR,5s,6aS)-2-((tetrahydro-2H-pyran-4-yl-2,2,6,6-d4)methyl-d2)-N-(6-(4-(trifluoromethyl)pyridin-3-yl)pyridazin-3-yl)octahydrocyclopenta[c]pyrrol-5-amine] | 2% | 0.77 nM |
| [2H]C([2H])(C1CCOCC1)N1C[C@H]2C[C@H](Nc3ccc(-c4cnccc4C(F)F)nn3)C[C@H]2C1 [Compound 13, (3aR,5s,6aS)-N-(6-(4-(difluoromethyl)pyridin-3-yl)pyridazin-3-yl)-2-((tetrahydro-2H-pyran-4-yl)methyl-d2)octahydrocyclopenta[c]pyrrol-5-amine] | 4% | 1.2 nM |
| [2H]C([2H])(C1CCOCC1)N1C[C@H]2C[C@H](Nc3nnc(-c4cnccc4C(F)(F)F)cc3C3CC3)C[C@H]2C1 [Compound 14, (3aR,5s,6aS)-N-(4-cyclopropyl-6-(4-(trifluoromethyl)pyridin-3-yl)pyridazin-3-yl)-2-((tetrahydro-2H-pyran-4-yl)methyl-d2)octahydrocyclopenta[c]pyrrol-5-amine] | 4% | 3.1 nM |
| [2H]C([2H])(C1CCOCC1)N1C[C@H]2C[C@H](Nc3nnc(-c4cnccc4C(F)(F)F)cc3OC)C[C@H]2C1 [Compound 15, (3aR,5s,6aS)-N-(4-methoxy-6-(4-(trifluoromethyl)pyridin-3-yl)pyridazin-3-yl)-2-((tetrahydro-2H-pyran-4-yl)methyl-d2)octahydrocyclopenta[c]pyrrol-5-amine] | 7% | 2.4 nM |
| [2H]C([2H])(C1CCOCC1)N1C[C@H]2C[C@H](Nc3nnc(-c4cnccc4C(F)(F)F)cc3C)C[C@H]2C1 [Compound 16, (3aR,5s,6aS)-N-(4-methyl-6-(4-(trifluoromethyl)pyridin-3-yl)pyridazin-3-yl)-2-((tetrahydro-2H-pyran-4-yl)methyl-d2)octahydrocyclopenta[c]pyrrol-5-amine] | 4% | 1.5 nM |
| [2H]C([2H])(C1CCOCC1)N1C[C@H]2C[C@H](Nc3ccc(-c4cnc(C(F)(F)F)cc4C(F)(F)F)nn3)C[C@H]2C1 [Compound 17, (3aR,5s,6aS)-N-(6-(4,6-bis(trifluoromethyl)pyridin-3-yl)pyridazin-3-yl)-2-((tetrahydro-2H-pyran-4-yl)methyl-d2)octahydrocyclopenta[c]pyrrol-5-amine] | 26% | 2.8 nM |
| [2H]C1([2H])CC(C([2H])([2H])N2C[C@H]3C[C@H](Nc4nnc(-c5cnccc5C(F)(F)F)cc4C)C[C@H]3C2)CC([2H])([2H])O1 [Compound 18, (3aR,5s,6aS)-N-(4-methyl-6-(4-(trifluoromethyl)pyridin-3-yl)pyridazin-3-yl)-2-((tetrahydro-2H-pyran-4-yl-2,2,6,6-d4)methyl-d2)octahydrocyclopenta[c]pyrrol-5-amine] | 4% | 1.1 nM |
| [2H]C1([2H])CC(CN2C[C@H]3C[C@H](Nc4nnc(-c5cnccc5C(F)(F)F)cc4C)C[C@H]3C2)CC([2H])([2H])O1 [Compound 19, (3aR,5s,6aS)-N-(4-methyl-6-(4-(trifluoromethyl)pyridin-3-yl)pyridazin-3-yl)-2-((tetrahydro-2H-pyran-4-yl-2,2,6,6-d4)methyl)octahydrocyclopenta[c]pyrrol-5-amine] | 3% | 1.3 nM |
| [2H]C([2H])(C1CCOCC1(C)C)N1C[C@H]2C[C@H](Nc3nnc(-c4cnccc4C(F)(F)F)cc3C)C[C@H]2C1 (stereo partly drawn) [Compound 20, (3aR,5s,6aS)-2-((3,3-dimethyltetrahydro-2H-pyran-4-yl)methyl-d2)-N-(4-methyl-6-(4-(trifluoromethyl)pyridin-3-yl)pyridazin-3-yl)octahydrocyclopenta[c]pyrrol-5-amine] | 2% | 6.4 nM |
| [2H]C([2H])(C1CCOCC1(C)C)N1C[C@H]2C[C@H](Nc3nnc(-c4cnccc4C(F)(F)F)cc3OC)C[C@H]2C1 (stereo partly drawn) [Compound 21, (3aR,5s,6aS)-2-((3,3-dimethyltetrahydro-2H-pyran-4-yl)methyl-d2)-N-(4-methoxy-6-(4-(trifluoromethyl)pyridin-3-yl)pyridazin-3-yl)octahydrocyclopenta[c]pyrrol-5-amine] | 2% | 11 nM |
